Where two headings read alike, the source gives them in different places.
Legend:
[1] = Serum PFAA concentrations in family members during intermittent phlebotomy (HPLC-MS/MS); format: in vivo, human; settings: for Serum concentration before treatment: before phlebotomy
Description: After receiving informed consent, intermittent phlebotomy was undertaken at an overall rate (Table 2) that was equal to or less than the maximum rate of what is done for routine blood donations at the Canadian Blood Services: ∼500 ccs of whole blood every 56 days. Frequency and timing of blood removal was not consistent between family members because of their personal availability, success at each time of venesection, and compliance of each participant. […] Mineral supplementation was discussed and was taken by each participant.
All serum samples were submitted to ALS Laboratories (Edmonton, AB) for quantitative analysis of PFAAs (see Supporting Information, S1 Table). Samples were extracted by solid phase extraction and concentrations of PFHxS, PFOS, and PFOA were determined using high performance liquid chromatography/tandem mass spectrometry. Formic acid (0.1 M) along with a mixture of isotopically labeled PFAAs (Wellington Laboratories, Guelph, Ontario) were added to 1.0 mL of serum. The mixture was vortexed, sonicated, and subjected to solid phase extraction. The extract was concentrated to 100 uL and an instrument performance internal standard was added along with 200 uL of 90% 20 mM aqueous acetic acid/10% methanol. Procedural blanks were run with each set of samples, and method limits of quantification (LOQ) were 0.5 ng/mL for each analyte. For the few PFAA levels that fell below this LOQ (shown as hollow circles in Figs. 1–3), LOQ/√2 (i.e. 0.35 ng/mL) was substituted for purposes of data analysis. PFHxS, PFOS, and PFOA levels in all participating family members were >LOQ throughout the intervention except for 3 PFOS measurements out of 16 total measurements in the 3rd child and one PFOA measurement out of 9 total measurements in the […]. Written informed consent was given by participants (or parents in the case of children) for their clinical records to be used in this study.

[2] = Apparent elimination half-life (HLapp) and phlebotomy efficiency coefficient in treated family members; format: in vivo, human; settings: family members with regular phlebotomy, except parent
Description: To evaluate the effect of phlebotomy, versus the expected rate of intrinsic elimination, we graphically and statistically compared the observed decreasing trends in each family member (fitted to a simple exponential decay model) with reference population elimination kinetics. Specifically, for the reference population of occupationally exposed retirees, we considered: i) the 95% confidence interval of the geometric mean elimination rate for each PFAA, and ii) the fastest individual rate of elimination rate among the reference population. For comparative purposes, the concentration of each PFAA in serum on the first day of the intervention was taken as time zero, and the models were forced through this starting point.
One metric that was calculated to compare the efficiency of the phlebotomy for removal of different PFAAs in each family member was termed the phlebotomy efficiency coefficient (EC). This was based on the subtractive difference between HLapp (yrs) in each treated family member and the geometric mean HLin (yrs) of the reference population according to Equation 1 . [drawing 1] (1)

[3] = set-up: method as in PMID 17805419; settings: cited from earlier work
[4] = set-up: method as in PMID 23980546; settings: urinary excretion, China, cited from earlier work
[5] = set-up: method as in earlier work; settings: 2009–2011; cited from earlier work

For `O=S(=O)(O)C(F)(F)C(F)(F)C(F)(F)C(F)(F)C(F)(F)C(F)(F)F` [PFHxS, Perfluorohexane sulfonate], the “Serum concentration before treatment” value ([1]; 1st Child) was 78.6 ng/mL, the Serum concentration ([1]; 1st Child, sampling date 2009.10.12) was 51.9 ng/mL and the Serum concentration ([1]; 1st Child, sampling date 2009.12.24) was 40.5 ng/mL. It also gave a Serum concentration ([1]; 1st Child, sampling date 2009.6.9) of 78.6 ng/mL, a Serum concentration ([1]; 1st Child, sampling date 2009.9.9) of 39.0 ng/mL and a Serum concentration ([1]; 1st Child, sampling date 2010.10.14) of 51.9 ng/mL. The Serum concentration ([1]; 1st Child, sampling date 2010.1.17) was 30.3 ng/mL, the Serum concentration ([1]; 1st Child, sampling date 2010.2.11) was 25.3 ng/mL and the Serum concentration ([1]; 1st Child, sampling date 2010.4.14) was 29.9 ng/mL. The Serum concentration ([1]; 1st Child, sampling date 2011.12.5) was 10.0 ng/mL, the Serum concentration ([1]; 1st Child, sampling date 2011.5.17, LOD=0.5ng/mL) was 31.8 ng/mL and the Serum concentration ([1]; 1st Child, sampling date 2011.8.12, LOD=0.5ng/mL) was 27.8 ng/mL. The Serum concentration ([1]; 1st Child, sampling date 2012.12.28, LOD=0.5ng/mL) was 21.7 ng/mL, the Serum concentration ([1]; 1st Child, sampling date 2012.4.24) was 32.7 ng/mL and the Serum concentration ([1]; 1st Child, sampling date 2012.8.21) was 25.1 ng/mL. The Serum concentration ([1]; 1st Child, sampling date 2013.3.30) was 18.1 ng/mL, the Serum concentration ([1]; 1st Child, sampling date 2013.7.30) was 11.9 ng/mL and the “Serum concentration before treatment” value ([1]; 2nd Child) was 140 ng/mL. It also gave a Serum concentration ([1]; 2nd Child, sampling date 2009.10.24) of 97.5 ng/mL, a Serum concentration ([1]; 2nd Child, sampling date 2009.6.6) of 140.0 ng/mL and a Serum concentration ([1]; 2nd Child, sampling date 2009.7.2) of 124.0 ng/mL. The Serum concentration ([1]; 2nd Child, sampling date 2009.7.30) was 132.0 ng/mL, the Serum concentration ([1]; 2nd Child, sampling date 2009.8.24) was 162.0 ng/mL and the Serum concentration ([1]; 2nd Child, sampling date 2009.9.27) was 67.2 ng/mL. It also gave a Serum concentration ([1]; 2nd Child, sampling date 2010.1.3) of 57.9 ng/mL, a Serum concentration ([1]; 2nd Child, sampling date 2010.2.15) of 44.7 ng/mL and a Serum concentration ([1]; 2nd Child, sampling date 2011.10.2) of 47.4 ng/mL. For the same compound, the Serum concentration ([1]; 2nd Child, sampling date 2011.12.24) was 43.2 ng/mL, the Serum concentration ([1]; 2nd Child, sampling date 2011.4.27) was 72.3 ng/mL and the Serum concentration ([1]; 2nd Child, sampling date 2011.8.14) was 63.0 ng/mL. For the same compound, the Serum concentration ([1]; 2nd Child, sampling date 2012.12.24) was 78.7 ng/mL, the Serum concentration ([1]; 2nd Child, sampling date 2012.4.6) was 48.3 ng/mL and the Serum concentration ([1]; 2nd Child, sampling date 2013.5.11.) was 34.8 ng/mL. The Serum concentration ([1]; 2nd Child, sampling date 2013.7.15) was 27.1 ng/mL, the “Serum concentration before treatment” value ([1]; 3rd Child) was 293 ng/mL and the Serum concentration ([1]; 3rd Child, sampling date 2010.3.12) was 168.0 ng/mL. It also gave a Serum concentration ([1]; 3rd Child, sampling date 2010.5.23) of 85.2 ng/mL, a Serum concentration ([1]; 3rd Child, sampling date 2011.1.6) of 98.7 ng/mL and a Serum concentration ([1]; 3rd Child, sampling date 2011.11.26) of 31.2 ng/mL. For the same compound, the Serum concentration ([1]; 3rd Child, sampling date 2011.2.24) was 114.0 ng/mL, the Serum concentration ([1]; 3rd Child, sampling date 2011.4.30) was 82.8 ng/mL and the Serum concentration ([1]; 3rd Child, sampling date 2011.6.13) was 92.0 ng/mL. The Serum concentration ([1]; 3rd Child, sampling date 2011.9.27) was 108.0 ng/mL, the Serum concentration ([1]; 3rd Child, sampling date 2012.10.16) was 63.9 ng/mL and the Serum concentration ([1]; 3rd Child, sampling date 2012.1.8) was 51.0 ng/mL. The Serum concentration ([1]; 3rd Child, sampling date 2012.12.9) was 95.4 ng/mL, the Serum concentration ([1]; 3rd Child, sampling date 2012.3.4) was 61.5 ng/mL and the Serum concentration ([1]; 3rd Child, sampling date 2012.4.28) was 110.0 ng/mL. For the same compound, the “Serum concentration before treatment” value ([1]; 4th Child) was 167 ng/mL, the “starting serum concentration relative to 95th centile among Canadians” value ([1]; 4th child (4th child)) was about 20 fold and the “Serum concentration after treatment” value ([1]; Average of 6 family members, after phlebotomy) was 23.3 ng/mL. The “Serum concentration before treatment” value ([1]; Average of 6 family members) was 125 ng/mL, the “Serum concentration before treatment” value ([1]; Parent one) was 44.1 ng/mL and the Serum concentration ([1]; Parent one, sampling date 2009.10.11) was 20.3 ng/mL. It also gave a Serum concentration ([1]; Parent one, sampling date 2009.10.12) of 25.0 ng/mL, a Serum concentration ([1]; Parent one, sampling date 2009.11.12) of 29.5 ng/mL and a Serum concentration ([1]; Parent one, sampling date 2009.12.14) of 35.4 ng/mL. The Serum concentration ([1]; Parent one, sampling date 2009.2.2) was 44.1 ng/mL, the Serum concentration ([1]; Parent one, sampling date 2009.5.18) was 35.0 ng/mL and the Serum concentration ([1]; Parent one, sampling date 2009.6.1) was 41.7 ng/mL. For the same compound, the Serum concentration ([1]; Parent one, sampling date 2009.7.4) was 26.8 ng/mL, the Serum concentration ([1]; Parent one, sampling date 2009.9.1) was 43.5 ng/mL and the Serum concentration ([1]; Parent one, sampling date 2010.10.10) was 22.4 ng/mL. The Serum concentration ([1]; Parent one, sampling date 2010.1.17) was 34.5 ng/mL, the Serum concentration ([1]; Parent one, sampling date 2010.3.13) was 21.2 ng/mL and the Serum concentration ([1]; Parent one, sampling date 2011.1.6) was 19.2 ng/mL. It also gave a Serum concentration ([1]; Parent one, sampling date 2011.11.26) of 8.7 ng/mL, a Serum concentration ([1]; Parent one, sampling date 2011.2.24) of 13.1 ng/mL and a Serum concentration ([1]; Parent one, sampling date 2011.4.30) of 18.8 ng/mL. For the same compound, the Serum concentration ([1]; Parent one, sampling date 2011.6.22) was 16.9 ng/mL, the Serum concentration ([1]; Parent one, sampling date 2011.8.4) was 18.0 ng/mL and the Serum concentration ([1]; Parent one, sampling date 2011.9.27) was 25.7 ng/mL. For the same compound, the Serum concentration ([1]; Parent one, sampling date 2012..12.28) was 17.4 ng/mL, the Serum concentration ([1]; Parent one, sampling date 2012.1.14) was 21.5 ng/mL and the Serum concentration ([1]; Parent one, sampling date 2012.11.1) was 19.1 ng/mL. For the same compound, the Serum concentration ([1]; Parent one, sampling date 2012.3.4) was 19.5 ng/mL, the Serum concentration ([1]; Parent one, sampling date 2012.4.29) was 23.1 ng/mL and the Serum concentration ([1]; Parent one, sampling date 2012.7.8) was 18.3 ng/mL. It also gave a Serum concentration ([1]; Parent one, sampling date 2012.8.21) of 21.7 ng/mL, a Serum concentration ([1]; Parent one, sampling date 2013.10.27) of 8.8 ng/mL and a Serum concentration ([1]; Parent one, sampling date 2013.2.18) of 15.7 ng/mL. The Serum concentration ([1]; Parent one, sampling date 2013.3.30) was 16.0 ng/mL, the Serum concentration ([1]; Parent one, sampling date 2013.5.11) was 13.1 ng/mL and the Serum concentration ([1]; Parent one, sampling date 2013.7.15) was 7.8 ng/mL. The Serum concentration ([1]; Parent one, sampling date 2013.9.8) was 18.2 ng/mL, the “Serum concentration before treatment” value ([1]; Parent two) was 29.3 ng/mL and the Serum concentration ([1]; Parent two, sampling date 2009.6.1) was 29.3 ng/mL. For the same compound, the Serum concentration ([1]; Parent two, sampling date 2009.7.7) was 21.3 ng/mL, the Serum concentration ([1]; Parent two, sampling date 2009.8.24) was 19.5 ng/mL and the Serum concentration ([1]; Parent two, sampling date 2010.1.3) was 16.3 ng/mL. For the same compound, the Serum concentration ([1]; Parent two, sampling date 2010.4.11, LOD=0.5ng/mL) was 17.8 ng/mL, the Serum concentration ([1]; Parent two, sampling date 2012.3.13) was 16.1 ng/mL and the Serum concentration ([1]; Parent two, sampling date 2013.1.1) was 13.2 ng/mL. For the same compound, the Serum concentration ([1]; Parent two, sampling date 2013.10.6) was 13.5 ng/mL, the Serum concentration ([1]; Parent two, sampling date 2013.6.22) was 9.1 ng/mL and the “HLapp compared with geometric mean HLin of reference population” value [2] was “significantly shorter”. The “HLin of fastest eliminator in the reference population” value ([3]; reference population of occupationally exposed retirees (26 individuals)) was 2.2 yrs, the “95% confidence interval of the geometric mean HLin” value ([3]; reference population of occupationally exposed retirees) was 5.8–9.2 yrs and the “intrinsic human elimination half-life (HLin)” value ([3]; serum, highly contaminated retirees >55 yrs, previously occupationally exposed) was 8.5 years. The “HLin, 95% confidence interval” value ([3]; serum, retirees >55 yrs, previously occupationally exposed) was 6.4–10.6 yrs, the HLapp ([4]; males and post-menopausal females) was 35 years and the HLapp ([4]; reproductive-aged females) was 7.7 years. For the same compound, the “95th percentile of serum concentration among Canadians” value [5] was 8.9 ng/mL.

Reference: PMC4264749, “Phlebotomy Treatment for Elimination of Perfluoroalkyl Acids in a Highly Exposed Family: A Retrospective Case-Series” (PLoS ONE, 2014)
